Tests used:
[1] = system: herpes simplex virus type I; test: Anti-herpes viral yield reduction in vero cells, plaque method; type: cell-based, herpes simplex virus KOS (type 1); conditions: 24 hours post infection
Description: (§1) Two strains of herpes simplex virus are used: KOS (type 1) and EKC (type 2). Prepare all of the virus stocks by infecting vero cells at an input multiplicity of 0.1 PFU/cell. Sonically disrupt the cultures at 20-24 hours post infection and store them at -70°C after inclusion of DMSO to 5% (v/v) to prevent freeze damage.
(§2) Determine the anti-herpes viral activity of the compounds by a known method (Ash and Diekema, Antiviral Research, 8: 71-83 (1987)). For example, infect vero cells with each strain of HSV at 1 PFU/Cell. At the end of the absorption period (60 min., 36°C), remove the unattached virus. Wash cell sheets twice with Eagles basal medium (EBM) and 2% fetal calf serum (FCS). Add fresh medium containing the test compounds. Finally, determine viral yields at 24 hours post infection by plaque method on vero cells with methyl cellulose overlay (0.5% in EBM + 1% FCS).

[2] = system: herpes simplex virus type II; test: as above; type: cell-based, herpes simplex virus EKC (type 2); conditions: 24 hours post infection; for Virus Titer: Viral Control 1.24x10^5
Description: as §1, §2

[3] = Single agent, Conc. 5.0 ng/ml, Viral Control 2.6x10^5

In the case of `Nc1ccn([C@@H]2O[C@H](CO)[C@@H](O)/C2=C\F)c(=O)n1` [Compound A, (E)-2'-deoxy-2'-fluoromethylidenecytidine], the inhibition at 0.0125 µg/mL ([1]; Conc. 0.0125 ug/ml) was 0%, the “Virus Titer” value ([1]; Conc. 0.0125 ug/ml, Viral Control 3.7x10^8) was 5.5x10^8 P.F.U./ml and the inhibition at 0.025 µg/mL ([1]; Conc. 0.025 ug/ml) was 88%. The “Virus Titer” value ([1]; Conc. 0.025 ug/ml, Viral Control 3.7x10^8) was 4.5x10^7 P.F.U./ml, the inhibition at 0.05 µg/mL ([1]; Conc. 0.050 ug/ml) was 100% and the “Virus Titer” value ([1]; Conc. 0.050 ug/ml, Viral Control 3.7x10^8) was 0 P.F.U./ml. The inhibition at 0.1 µg/mL ([1]; Conc. 0.10 ug/ml) was 100%, the “Virus Titer” value ([1]; Conc. 0.10 ug/ml, Viral Control 3.7x10^8) was 0 P.F.U./ml and the inhibition at 0.005 µg/mL ([1]; Single agent, Conc. 5.0 ng/ml) was 42%. For the same compound, the “Virus Titer” value [1, 3] was 1.6x10^5 P.F.U./ml, the inhibition at 0.0125 µg/mL ([2]; Conc. 0.0125 ug/ml) was 32% and the “Virus Titer” value ([2]; Conc. 0.0125 ug/ml) was 8.5x10^4 P.F.U./ml. The inhibition at 0.025 µg/mL ([2]; Conc. 0.025 ug/ml) was 96%, the “Virus Titer” value ([2]; Conc. 0.025 ug/ml) was 5.5x10^3 P.F.U./ml and the inhibition at 0.05 µg/mL ([2]; Conc. 0.050 ug/ml) was 100%. The “Virus Titer” value ([2]; Conc. 0.050 ug/ml) was 0 P.F.U./ml, the inhibition at 0.1 µg/mL ([2]; Conc. 0.10 ug/ml) was 100% and the “Virus Titer” value ([2]; Conc. 0.10 ug/ml) was 0 P.F.U./ml.
`Nc1nc2c(ncn2COCCO)c(=O)[nH]1` [ACV, 9-[(2-hydroxyethoxy)methyl]guanine, reference compound] was tested, and the inhibition at 0.0025 µg/mL ([1]; Single agent, Conc. 2.5 ng/ml) was 0%, the “Virus Titer” value ([1]; Single agent, Conc. 2.5 ng/ml, Viral Control 2.6x10^5) was 3x10^5 P.F.U./ml and the inhibition at 0.005 µg/mL ([1]; Single agent, Conc. 5.0 ng/ml) was 30%. The “Virus Titer” value [1, 3] was 1.85x10^5 P.F.U./ml.

Source: EP0671918B1, “COMPOSITIONS CONTAINING ACYCLOVIR-LIKE COMPOUNDS AND 2'-VINYL SUBSTITUTED NUCLEOSIDE ANALOGS FOR THE TREATMENT OF VIRAL INFECTIONS” (MERRELL PHARMACEUTICALS INC., priority 1992, dated 1994)
